{"source": "patent US5436243A", "about": "“Aminoanthraquinone derivatives to combat multidrug resistance” (priority 1993, dated 1995)", "key": {"[1]": {"tested_on": "MARCKS protein", "assay": "Phosphorylation of MARCKS in intact MCF7 Adr 10 cells", "type": "cell-based, human", "conditions": "MCF7 Adr 10, representative time course experiment, FIG. 12", "text": "(§1) The effects of compound 1c on phosphorylation of the P-glycoprotein and the MARCKS protein (myristoylated alanine-rich C kinase substrate) was studied in intact cells labeled with [^32 P] orthophosphate. The MARCKS protein (also known as the 80 to 87 kD protein) is observed to be rapidly phosphorylated subsequent to PKC activation by phorbol esters, cell permeant diacylglycerols, growth factor and hormonal stimulation in a variety of cell types from several species. […] In these experiments, phosphorylation of MARCKS was used as a marker of cellular PKC activity. The effects of 1c on phosphorylation states of the P-glycoprotein and MARCKS protein were studied to test the possibility that this compound may be inhibiting PKC in cells; due to metabolism to an active PKC inhibitor or by achieving inhibitory concentrations in the microenvironment of the P-glycoprotein.\n(§2) METHOD: A monoclonal antibody to the P-glycoprotein, C219, was used to immunoprecipitate the P-glycoprotein and a polyclonal rabbit antibody was used to immunoprecipitate the MARCKS protein from extracts of cells labeled with [^32 P]. MARCKS was immunoprecipitated after preclearing the aliquot with normal rabbit IgG. MCF7 Adr 10 cells were labeled with [^32 P] orthophosphate for two hours. […] P-glycoprotein and MARCKS were immunoprecipitated from aliquots of the same sample containing equivalent radioactivity."}, "[2]": {"tested_on": "P-glycoprotein", "assay": "Phosphorylation of P-glycoprotein in intact MCF7 Adr 10 cells", "type": "cell-based, human", "conditions": "MCF7 Adr 10, representative time course experiment, FIG. 12", "text": "as §1, §2"}, "[3]": {"tested_on": "MCF7 Adr 10 human breast cancer cells", "assay": "Time course of accumulation of anthraquinones in cells", "type": "cell-based", "conditions": "25 μM, 37° C., MCF7 Adr 10 cells", "protocol": "METHOD: Near confluent monolayers of MCF7 ADR 10 were washed 2 times with Dulbecco's Phosphate Buffered Saline (DPBS) and 1 ml of Iscove's Modified Dulbecco's Medium (IMDM) was added to each well. The monolayers were treated with 25 μM 1b or 1c and incubated at 37° C. After incubating the samples for the times indicated in FIG. 1, the monolayers were washed three times with DPBS and detached using 1 ml of Trypsin-EDTA.An aliquot of the cell suspension was counted using a Coulter Counter and a 0.8 ml aliquot was extracted in a Bligh-Dyer extraction (Bligh et at., Can. J. Biochem. 31:911-916 (1959)). The absorbance of the lower chloroform phase was measured at 648 nm and 600 nm using a spectrophotometer. The amount of 1b or 1c present in the extract was quantitated from a standard curve performed in cell extracts. The data is expressed as nmol anthraquinone/10^6 cells."}, "[4]": {"tested_on": "serine threonine kinases", "assay": "In vitro assays of serine threonine kinases", "type": "biochemical"}, "[5]": {"tested_on": "granulocyte-macrophage progenitors (CFU-GM)", "assay": "cells", "protocol": "(§3) Myelosuppression is often a dose limiting side effect of chemotherapeutic agents. […] The toxicities to human granulocyte-macrophage progenitors (CFU-GM) of 1b, 1c, and VLB was assessed by measuring inhibition of CFU-GM proliferation in cultures continuously exposed to each agent alone and compared to the toxicities to sensitive and resistant MCF7 in tumor cell clonogenic assays.\n(§4) METHOD: The CFLI-GM assay measures clonal proliferation of granulocyte/macrophage precursors in semisolid agar cultures. The progeny of the granulocyte/macrophage precursors remain in proximity of the progenitor cells and form colonies. Colonies which contain greater than 40 cells after 10-12 days of culture are counted using an inverted phase contrast microscope. The tumor cell clonogenic assays measure clonal proliferation of tumor cells. In this assay, 300-500 cells are plated in 10 cm^2 wells, allowed to adhere overnight, and are treated the following day. Tumor cell colonies were counted after 10-12 days of culture. The times of exposure in these experiments are similar; however, the concentrations of FCS are 20% in the CFU-GM assay and 10% in the tumor cell clonogenic assays. The IC50's are calculated as described above for the MTT proliferation assays. (See Example 4).\n(§5) To facilitate this comparison, a CFLI-GM toxicity index was calculated by dividing the CFU-GM IC50 by the respective tumor cell clonogenic IC50's in sensitive and resistant cells."}, "[6]": {"assay": "in vitro", "conditions": "human", "protocol": "as §3, §4, §5"}, "[7]": {"tested_on": "SKRC7 human renal cell line", "assay": "Vinblastine accumulation assay, SKRC7", "type": "cell-based", "conditions": "10 μM, 10 nM [3H] vinblastine", "protocol": "These cell lines are models of intrinsic resistance.\n[^3 H] vinblastine was added to a final concentration of 10 nM and the cells were incubated for 2.5 hours. At this time, the cells were washed 3 times in ice cold PBS and lysed in buffer containing 0.1% Triton X-100."}}, "data": [{"molecule": "O=C1c2ccccc2C(=O)c2c(NCCCN3CCOCC3)ccc(NCCCN3CCOCC3)c21", "note": "[Compound 1c, 1,4-bis-[[3'(4-morpholino)propyl]amino]anthraquinone]", "values": [{"measurement": "increase of MARCKS phosphorylation", "setting": "[1]", "value": 3, "unit": "fold"}, {"measurement": "increase of P-glycoprotein phosphorylation", "setting": "[2]", "value": 6.6, "unit": "fold"}, {"measurement": "time of maximal accumulation of 1b and 1c", "setting": "[3]", "value": "about 2 hours"}, {"measurement": "activity in in vitro assays of serine threonine kinases", "setting": "[4]", "value": "does not show significant activity"}, {"measurement": "IC50", "setting": "[5]; Homo sapiens, CFU-GM, read-out: Continuous Exposure IC50, CFU-GM", "value": 7.8, "unit": "µM"}, {"measurement": "CFU-GM Toxicity Index (CFU-GM IC50 / Tumor Cell Clonogenic IC50)", "setting": "[5]; human", "value": 19.5}, {"measurement": "selectivity ratio", "setting": "[6]; CFU-GM Toxicity Index (CFU-GM IC50 / Tumor Cell Clonogenic IC50)", "value": 9.8}, {"measurement": "selectivity ratio", "setting": "[6]; cfu-gm vs mcf7, lower sensitivity of CFU-GM than drug sensitive (WT) and MDR cancer cell lines", "value": "10 to 20"}, {"measurement": "vinblastine accumulation relative to verapamil", "setting": "[7]", "value": "comparable or superior to verapamil activity"}]}]}
